Results: patent US7932270B2 (Cytokinetics, Inc., priority 2006, dated 2011)

Molecular target: T1, chicken gizzard smooth muscle myosin subfragment-1 chemically crosslinked to cardiac or skeletal actin (Gallus gallus, UniProt P10587)
T1 construct: chicken gizzard smooth muscle myosin subfragment-1; from tissue; host or cells: chicken gizzard
Assay: Smooth muscle myosin ATPase dose response assay (pyruvate kinase/horseradish peroxidase/pyruvate oxidase-coupled, amplex red fluorescence)
Assay type: biochemical
Details: read-out: IC50 Arithmetic Mean
Procedure, shortened: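 Inhibition is measured in a peroxidase/pyruvate oxidase-linked format at pH 7.00 and 22° C, 0.15 mM ATP final. Myosin input is titrated to a target turnover since active fraction differs between preparations.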

T1 sequence (P02607 2-151): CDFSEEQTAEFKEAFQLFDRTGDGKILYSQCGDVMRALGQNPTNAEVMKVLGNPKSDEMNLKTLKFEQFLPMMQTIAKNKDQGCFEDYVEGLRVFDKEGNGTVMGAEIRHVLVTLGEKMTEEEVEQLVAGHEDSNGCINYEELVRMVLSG
T1 sequence (P10587 84-789): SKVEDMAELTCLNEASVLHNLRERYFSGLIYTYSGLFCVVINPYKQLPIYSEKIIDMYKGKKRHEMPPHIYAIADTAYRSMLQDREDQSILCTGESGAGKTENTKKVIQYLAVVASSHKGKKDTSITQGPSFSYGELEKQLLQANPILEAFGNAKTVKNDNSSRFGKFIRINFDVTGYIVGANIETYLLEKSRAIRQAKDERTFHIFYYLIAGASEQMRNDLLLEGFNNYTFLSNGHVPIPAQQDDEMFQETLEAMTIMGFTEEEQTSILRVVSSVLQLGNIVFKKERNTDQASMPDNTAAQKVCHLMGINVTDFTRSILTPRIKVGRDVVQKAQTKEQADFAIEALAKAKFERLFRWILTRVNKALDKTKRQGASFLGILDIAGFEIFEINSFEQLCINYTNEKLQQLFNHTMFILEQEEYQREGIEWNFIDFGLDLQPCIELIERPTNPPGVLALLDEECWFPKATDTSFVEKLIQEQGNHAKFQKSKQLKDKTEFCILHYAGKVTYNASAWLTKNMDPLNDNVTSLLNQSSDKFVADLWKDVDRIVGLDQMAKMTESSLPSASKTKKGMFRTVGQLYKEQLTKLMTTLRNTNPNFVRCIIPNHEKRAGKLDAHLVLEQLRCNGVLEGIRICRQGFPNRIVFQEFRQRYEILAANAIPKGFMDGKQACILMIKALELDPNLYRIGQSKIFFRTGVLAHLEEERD

Row | Structure (SMILES) | IC50
1 | OC(CNCc1ccccn1)c1ccc(-c2ccccc2)nc1NCCc1cccc(F)c1 (stereo not drawn) [1-(2-{[2-(3-fluorophenyl)ethyl]amino}-6-phenyl(3-pyridyl))-2-[(2-pyridylmethyl)amino]ethan-1-ol] | 19400 nM
2 | CC(NC(=O)c1ccc(-c2ccccc2C#N)nc1NCCc1cccc(F)c1)C(N)=O (stereo not drawn) | 564 nM
3 | CC(C)[C@H](CNC(=O)c1ccc(-c2ccccc2C#N)nc1NCCc1cccc(F)c1)NC(=O)CN [N-((1R)-1-{[(6-(2-cyanophenyl)-2-{[2-(3-fluorophenyl)ethyl]amino}(3-pyridyl))carbonylamino]methyl}-2-methylpropyl)-2-aminoacetamide] | 939 nM
4 | N#Cc1ccccc1-c1ccc(C(=O)NC[C@@H]2CCCN(C(=O)CN)C2)c(NCCc2cccc(F)c2)n1 [N-{[(3S)-1-(2-aminoacetyl)(3-piperidyl)]methyl}(6-(2-cyanophenyl)-2-{[2-(3-fluorophenyl)ethyl]amino}(3-pyridyl))carboxamide] | 755 nM
5 | CS(=O)(=O)NC(=O)CNC(=O)c1ccc(-c2ccccc2C#N)nc1NCCc1cccc(F)c1 [2-[(6-(2-cyanophenyl)-2-{[2-(3-fluorophenyl)ethyl]amino}(3-pyridyl))carbonylamino]-N-(methylsulfonyl)acetamide] | 24900 nM
6 | CC(C)(C)OC(=O)N1CCC[C@@H]1CNC(=O)c1ccc(-c2ccccc2C#N)nc1NCCc1cccc(F)c1 [tert-butyl (2R)-2-{[(6-(2-cyanophenyl)-2-{[2-(3-fluorophenyl)ethyl]amino}(3-pyridyl))carbonylamino]methyl}pyrrolidinecarboxylate] | 1930 nM
7 | CC(=O)N1CC[C@H](CNC(=O)c2ccc(-c3ccccc3)nc2NCCc2ccccn2)C1 [N-[((3R)-1-acetylpyrrolidin-3-yl)methyl]{6-phenyl-2-[(2-(2-pyridyl)ethyl)amino](3-pyridyl)}carboxamide] | 26900 nM
8 | Cn1cc(-c2ccc(C(=O)NC[C@H]3CCCN3C(=O)CCNC(=O)OC(C)(C)C)c(NCCc3cccc(F)c3)n2)cn1 [N-[((2R)-1-{3-[(tert-butoxy)carbonylamino]propanoyl}pyrrolidin-2-yl)methyl](2-{[2-(3-fluorophenyl)ethyl]amino}-6-(1-methylpyrazol-4-yl)(3-pyridyl))carboxamide] | 5030 nM
9 | CC(=O)c1ccc(-c2ccc(C(=O)NCc3cccnc3)c(NCCc3ccccn3)n2)cc1 [{6-(4-acetylphenyl)-2-[(2-(2-pyridyl)ethyl)amino](3-pyridyl)}-N-(3-pyridylmethyl)carboxamide] | 2130 nM
10 | N#Cc1ccccc1-c1ccc(C(=O)N[C@H]2CCCNC2=O)c(NCCc2cccc(F)c2)n1 [N-((3S)-2-oxo(3-piperidyl))(6-(2-cyanophenyl)-2-{[2-(3-fluorophenyl)ethyl]amino}(3-pyridyl))carboxamide] | 5610 nM
11 | Cn1cc(-c2nc(NCCc3cccc(F)c3)c(C(=O)NCc3cccnc3CNC(=O)OC(C)(C)C)cc2C#N)cn1 [N-[(2-{[(tert-butoxy)carbonylamino]methyl}(3-pyridyl))methyl](5-cyano-2-{[2-(3-fluorophenyl)ethyl]amino}-6-(1-methylpyrazol-4-yl)(3-pyridyl))carboxamide] | 750 nM
12 | O=C(NCc1cccnc1)c1ccc(-c2ccccn2)nc1NCCc1ccccn1 [N-(3-pyridylmethyl){6-(2-pyridyl)-2-[(2-(2-pyridyl)ethyl)amino](3-pyridyl)}carboxamide] | 5380 nM
13 | C[C@H](CNC(=O)c1cc(F)c(-c2cnn(C)c2)nc1NCCc1cccc(F)c1)NS(C)(=O)=O [N-{(2R)-2-[(methylsulfonyl)amino]propyl}(5-fluoro-2-{[2-(3-fluorophenyl)ethyl]amino}-6-(1-methylpyrazol-4-yl)(3-pyridyl))carboxamide] | 1000 nM
14 | Cc1ccc(-c2ccc(C(=O)NCc3cccnc3)c(NCCc3ccccn3)n2)cc1C [{6-(3,4-dimethylphenyl)-2-[(2-(2-pyridyl)ethyl)amino](3-pyridyl)}-N-(3-pyridylmethyl)carboxamide] | 3380 nM
15 | N#Cc1ccccc1-c1ccc(C(=O)NCCNS(=O)(=O)CCN)c(NCCc2cccc(F)c2)n1 [N-(2-{[(2-aminoethyl)sulfonyl]amino}ethyl)(6-(2-cyanophenyl)-2-{[2-(3-fluorophenyl)ethyl]amino}(3-pyridyl))carboxamide] | 1550 nM
16 | CC(C)(C)OC(=O)NCc1ncccc1CNC(=O)c1cc(F)c(-c2ccccc2C#N)nc1NCCc1cccc(F)c1 [N-[(2-{[(tert-butoxy)carbonylamino]methyl}(3-pyridyl))methyl](6-(2-cyanophenyl)-5-fluoro-2-{[2-(3-fluorophenyl)ethyl]amino}(3-pyridyl))carboxamide] | 5360 nM
17 | CC(=O)N1CCC[C@H](CNC(=O)c2ccc(-c3ccccc3C#N)nc2NCCc2cccc(F)c2)C1 [N-[((3R)-1-acetyl(3-piperidyl))methyl](6-(2-cyanophenyl)-2-{[2-(3-fluorophenyl)ethyl]amino}(3-pyridyl))carboxamide] | 696 nM
18 | O=C(NCc1cccnc1)c1ccc(-c2ccccc2O)nc1NCCc1ccccn1 [{6-(2-hydroxyphenyl)-2-[(2-(2-pyridyl)ethyl)amino](3-pyridyl)}-N-(3-pyridylmethyl)carboxamide] | 2170 nM
19 | CC(C)(C)OC(=O)NCCCN1C(=O)CC[C@@H]1CNC(=O)c1cc(C#N)c(-c2cn[nH]c2)nc1NCCc1cccc(F)c1 [N-[((2R)-1-{3-[(tert-butoxy)carbonylamino]propyl}-5-oxopyrrolidin-2-yl)methyl](5-cyano-2-{[2-(3-fluorophenyl)ethyl]amino}-6-pyrazol-4-yl(3-pyridyl))carboxamide] | 3510 nM
20 | Cn1cc(-c2nc(NCCc3cccc(F)c3)c(C(=O)NC[C@H]3CCC(=O)N3CCCNC(=O)OC(C)(C)C)cc2F)cn1 [N-[((2R)-1-{3-[(tert-butoxy)carbonylamino]propyl}-5-oxopyrrolidin-2-yl)methyl](5-fluoro-2-{[2-(3-fluorophenyl)ethyl]amino}-6-(1-methylpyrazol-4-yl)(3-pyridyl))carboxamide] | 322 nM
21 | COc1ccccc1CCNc1nc(-c2ccccc2)ccc1C(=O)NCc1cccnc1 [(2-{[2-(2-methoxyphenyl)ethyl]amino}-6-phenyl(3-pyridyl))-N-(3-pyridylmethyl)carboxamide] | 980 nM
22 | N#Cc1ccccc1-c1ccc(C(=O)NCc2cc(CN)ccn2)c(NCCc2cccc(F)c2)n1 [N-{[4-(aminomethyl)(2-pyridyl)]methyl}(6-(2-cyanophenyl)-2-{[2-(3-fluorophenyl)ethyl]amino}(3-pyridyl))carboxamide] | 598 nM

Second part, the molecule after the results:

Row | IC50 | Structure (SMILES)
23 | 40 nM | N#Cc1ccccc1-c1ccc(C(=O)NCc2ncco2)c(NCCc2cccc(F)c2)n1 [(6-(2-cyanophenyl)-2-{[2-(3-fluorophenyl)ethyl]amino}(3-pyridyl))-N-(1,3-oxazol-2-ylmethyl)carboxamide]
24 | 413 nM | N#Cc1ccccc1-c1ccc(C(=O)NC[C@H]2CCN2)c(NCCc2cccc(F)c2)n1 [N-[((2R)azetidin-2-yl)methyl](6-(2-cyanophenyl)-2-{[2-(3-fluorophenyl)ethyl]amino}(3-pyridyl))carboxamide]
25 | 5 nM | N#Cc1ccccc1-c1ccc(C(=O)NCc2cccc(NCCCN)n2)c(NCCc2cccc(F)c2)n1 [N-({6-[(3-aminopropyl)amino](2-pyridyl)}methyl)(6-(2-cyanophenyl)-2-{[2-(3-fluorophenyl)ethyl]amino}(3-pyridyl))carboxamide]
26 | 351 nM | Cn1cc(-c2ccc(C(=O)NC[C@H]3CCCN3C(=O)CCCN)c(NCCc3cccc(F)c3)n2)cn1 [N-{[(2R)-1-(4-aminobutanoyl)pyrrolidin-2-yl]methyl}(2-{[2-(3-fluorophenyl)ethyl]amino}-6-(1-methylpyrazol-4-yl)(3-pyridyl))carboxamide]
27 | 54 nM | Cc1cccc(CNC(=O)c2ccc(-c3ccccc3C#N)nc2NCCc2cccc(F)c2)n1 [(6-(2-cyanophenyl)-2-{[2-(3-fluorophenyl)ethyl]amino}(3-pyridyl))-N-[(6-methyl(2-pyridyl))methyl]carboxamide]
28 | 47 nM | Cn1cc(-c2nc(NCCc3cccc(F)c3)c(C(=O)NC[C@H]3CCN3C(=O)CO)cc2F)cn1 [N-{[(2R)-1-(2-hydroxyacetyl)azetidin-2-yl]methyl}(5-fluoro-2-{[2-(3-fluorophenyl)ethyl]amino}-6-(1-methylpyrazol-4-yl)(3-pyridyl))carboxamide]
29 | 23 nM | N#Cc1ccccc1-c1ccc(C(=O)NC[C@H]2CCCN2C(=O)CCCN)c(NCCc2cc(F)cc(F)c2)n1 [N-{[(2R)-1-(4-aminobutanoyl)pyrrolidin-2-yl]methyl}(2-{[2-(3,5-difluorophenyl)ethyl]amino}-6-(2-cyanophenyl)(3-pyridyl))carboxamide]
30 | 381 nM | Cc1cc(C(=O)NC[C@H]2CCCN2C(=O)CCCN)c(NCCc2cccc(F)c2)nc1-c1cnn(C)c1 [N-{[(2R)-1-(4-aminobutanoyl)pyrrolidin-2-yl]methyl}(2-{[2-(3-fluorophenyl)ethyl]amino}-5-methyl-6-(1-methylpyrazol-4-yl)(3-pyridyl))carboxamide]
31 | 71 nM | N#Cc1ccccc1-c1ccc(C(=O)NC[C@H]2CCCN2S(=O)(=O)CCN)c(NCCc2cccc(F)c2)n1 [N-({(2R)-1-[(2-aminoethyl)sulfonyl]pyrrolidin-2-yl}methyl)(6-(2-cyanophenyl)-2-{[2-(3-fluorophenyl)ethyl]amino}(3-pyridyl))carboxamide]
32 | 19 nM | N#Cc1ccccc1-c1ccc(C(=O)NCc2cccc(CNCCN)n2)c(NCCc2cccc(F)c2)n1 [N-[(6-{[(2-aminoethyl)amino]methyl}(2-pyridyl))methyl](6-(2-cyanophenyl)-2-{[2-(3-fluorophenyl)ethyl]amino}(3-pyridyl))carboxamide]
33 | 269 nM | N[C@@H](CO)C(=O)N1CCCC1CNC(=O)c1cc(F)c(-c2cc[nH]n2)nc1NCCc1cccc(F)c1 (stereo partly drawn) [N-{[(2R)-1-((2S)-2-amino-3-hydroxypropanoyl)pyrrolidin-2-yl]methyl}(5-fluoro-2-{[2-(3-fluorophenyl)ethyl]amino}-6-pyrazol-3-yl(3-pyridyl))carboxamide]
